Earlier results in patent US20210274780A1, “Disinfectant Composition Against the Novel Wuhan Corona Virus COVID-19” (priority 2020, published 2021).

Assays:
[1] = tested on: Gram-positive bacteria
[2] = tested on: polioviruses
[3] = tested on: adenoviruses

[H]/N=C(\N/C(=N/[H])NCCCCCCNC(=N)NC(=N)Nc1ccc(Cl)cc1)Nc1ccc(Cl)cc1 [Chlorhexidine]
effective concentration [1]: ≥ 1 µg/L | effectiveness against polioviruses [2]: ineffective | effectiveness against adenoviruses [3]: ineffective
